Reference: US11193164B2, “Methods of diagnosing and treating cancer targeting extrachromosomal DNA” (The Regents of the University of California, priority 2017, dated 2021)

Legend:
GBM39 cells [1] = assay: Next generation sequencing fine structure analysis of EGFRvIII amplification in GBM39 cultures; format: cell-based, human; conditions: Erlotinib Treatment (ERZ) sample (row 4), FIG. 13B, naive samples 110 to 150
GBM39 cells [2] = assay: FISH images of EGFRvIII amplification (extrachromosomal or chromosomal DNA) in GBM39 cells; format: cell-based, human; conditions: FIG. 13A
Protocol: Cytogenetics. Metaphase cells were obtained by treating cells with Karyomax (Gibco) at a final concentration of 0.01 μg/ml for 1-3 hours. Cells were collected, washed in PBS, and resuspended in 0.075 M KCl for 15-30 minutes. Carnoy's fixative (3:1 methanol/glacial acetic acid) was added dropwise to stop the reaction. Cells were washed an additional 3 times with Carnoy's fixative, before being dropped onto humidified glass sides for metaphase cell preparations. For ECdetect analyses, DAPI was added to the slides. Images in the main figures were captured with an Olympus FV1000 confocal microscope. All other images were captured at a magnification of 1000 with an Olympus BX43 microscope equipped with a QiClick cooled camera. FISH was performed by adding the appropriate DNA FISH probe onto the fixed metaphase spreads. A coverslip was added and sealed with rubber cement. DNA denaturation was carried out at 75° C. for 3-5 minutes and the slides were allowed to hybridize overnight at 37° C. in a humidified chamber. Slides were subsequently washed in 0.4×SSC at 50° C. for 2 minutes, followed by a final wash in 2×SSC/0.05% Tween-20. Metaphase cells and interphase nuclei were counterstained with DAPI, a coverslip was applied, and images were captured.

C#Cc1cccc(Nc2ncnc3cc(OCCOC)c(OCCOC)cc23)c1 [Erlotinib]
Average copy numbers of amplified intervals as determined from sequencing analysis (GBM39 cells [1]): 5.4
Location of EGFRvIII amplification in FISH images (GBM39 cells [2]; GBM39 cells after Drug Withdrawal): EC amplification
Location of EGFRvIII amplification in FISH images (GBM39 cells [2]; GBM39 cells in response to Erlotinib Treatment (ERZ), naive cells EC amplification): HSR amplification
